Reference: paper PMC8515367 (ACS Omega, 2021)
Positions count from the first letter of the chain named. Where “and” joins values, the source holds several entries; their conditions need not be identical. Equal entries are not always repeated. Where two headings read alike, the source gives them in different places.

Columns and labels:
M42F/G121V-ecDHFR [1] = target: T1, M42F/G121V-ecDHFR (Escherichia coli, UniProt P0ABQ4, G121V/M42F); test: Double-mutant cycle analysis of ligand binding; settings: A′ = M42F, B′ = G121V
T1 sequence (P0ABQ4 1-159 M42F/G121V): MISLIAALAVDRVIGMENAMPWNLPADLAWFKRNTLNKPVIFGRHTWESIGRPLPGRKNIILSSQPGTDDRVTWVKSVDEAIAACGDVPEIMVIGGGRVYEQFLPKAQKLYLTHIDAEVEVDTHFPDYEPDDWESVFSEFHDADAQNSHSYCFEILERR

T113V/G121V-ecDHFR [2] = target: T2, T113V/G121V-ecDHFR (Escherichia coli, UniProt P0ABQ4, G121V/T113V); test: Ligand-binding assay, tryptophan fluorescence titration
T2 sequence (P0ABQ4 1-159 T113V/G121V): T1 sequence (P0ABQ4 1-159 M42F/G121V) with F42M, T113V

G121S-ecDHFR [3] = target: T3, G121S-ecDHFR (Escherichia coli, UniProt P0ABQ4, G121S); test: as above
T3 sequence (P0ABQ4 1-159 G121S): T1 sequence (P0ABQ4 1-159 M42F/G121V) with F42M, V121S

M42F-ecDHFR = target: T4, M42F-ecDHFR (Escherichia coli, UniProt P0ABQ4, M42F); test: as above
T4 sequence (P0ABQ4 1-159 M42F): T1 sequence (P0ABQ4 1-159 M42F/G121V) with V121G

wildtype ecDHFR [4] = target: T5, wildtype ecDHFR (Escherichia coli, UniProt P0ABQ4); settings: read-out: KD^NADPH, previous reports; cited from earlier work
T5 sequence (P0ABQ4 1-159): T1 sequence (P0ABQ4 1-159 M42F/G121V) with F42M, V121G

M42F/G121S-ecDHFR [5] = target: T6, M42F/G121S-ecDHFR (Escherichia coli, UniProt P0ABQ4, G121S/M42F); test: Double-mutant cycle analysis of ligand binding; settings: A′ = M42F, B′ = G121S
T6 sequence (P0ABQ4 1-159 M42F/G121S): T1 sequence (P0ABQ4 1-159 M42F/G121V) with V121S

G121V-ecDHFR [6] = target: T7, G121V-ecDHFR (Escherichia coli, UniProt P0ABQ4, G121V); test: Ligand-binding assay, tryptophan fluorescence titration
T7 sequence (P0ABQ4 1-159 G121V): T1 sequence (P0ABQ4 1-159 M42F/G121V) with F42M

wildtype ecDHFR [7] = target: T5, wildtype ecDHFR; test: as above
T113V-ecDHFR = target: T8, T113V-ecDHFR (Escherichia coli, UniProt P0ABQ4, T113V); test: as above
T8 sequence (P0ABQ4 1-159 T113V): T1 sequence (P0ABQ4 1-159 M42F/G121V) with F42M, T113V, V121G

G121V-ecDHFR [8] = target: T7, G121V-ecDHFR; settings: cited from earlier work
T113V/G121S-ecDHFR [9] = target: T9, T113V/G121S-ecDHFR (Escherichia coli, UniProt P0ABQ4, G121S/T113V); test: Double-mutant cycle analysis of ligand binding; settings: A′ = T113V, B′ = G121S
T9 sequence (P0ABQ4 1-159 T113V/G121S): T1 sequence (P0ABQ4 1-159 M42F/G121V) with F42M, T113V, V121S

T113V/G121S-ecDHFR [10] = target: T9, T113V/G121S-ecDHFR; test: Ligand-binding assay, tryptophan fluorescence titration
M42F/G121S-ecDHFR [11] = target: T6, M42F/G121S-ecDHFR; test: as above
T113V/G121V-ecDHFR [12] = target: T2, T113V/G121V-ecDHFR; test: Double-mutant cycle analysis of ligand binding; settings: A′ = T113V, B′ = G121V
G121S-ecDHFR [13] = target: T3, G121S-ecDHFR; settings: cited from earlier work
M42F/G121V-ecDHFR [14] = target: T1, M42F/G121V-ecDHFR; test: Ligand-binding assay, tryptophan fluorescence titration
T113V mutants of ecDHFR = settings: cited from earlier work

In the case of NC(=O)C1=CN([C@@H]2O[C@H](COP(=O)(O)OP(=O)(O)OC[C@H]3O[C@@H](n4cnc5c(N)ncnc54)[C@H](OP(=O)(O)O)[C@@H]3O)[C@@H](O)[C@H]2O)C=CC1 [NADPH, nicotinamide adenine dinucleotide phosphate], the ΔG1 (M42F/G121V-ecDHFR [1]) is reported as 8.20 kcal/mol, the ΔG2 (M42F/G121V-ecDHFR [1]) is reported as 5.69 kcal/mol and the “ΔG′1” value (M42F/G121V-ecDHFR [1]) is reported as 4.45 kcal/mol. The “ΔG′2” value (M42F/G121V-ecDHFR [1]) was 1.95 kcal/mol, the ΔΔG (M42F/G121V-ecDHFR [1]) was “–3.75 kcal/mole” and the Kd (T113V/G121V-ecDHFR [2]) was 137 ± 1.94 µM. For the same compound, the Kd (G121S-ecDHFR [3]) was 9.73 ± 2.4 µM, the Kd (M42F-ecDHFR) was 33.6 ± 2.67 µM and the Kd (wildtype ecDHFR [4]) was 0.34 µM and 0.44 µM. For the same compound, the ΔG1 (M42F/G121S-ecDHFR [5]) was 8.20 kcal/mol, the ΔG2 (M42F/G121S-ecDHFR [5]) was 5.12 kcal/mol and the “ΔG′1” value (M42F/G121S-ecDHFR [5]) was 6.13 kcal/mol. The “ΔG′2” value (M42F/G121S-ecDHFR [5]) was 3.06 kcal/mol, the ΔΔG (M42F/G121S-ecDHFR [5]) was “–2.06 kcal/mole” and the Kd (G121V-ecDHFR [6]) was 12.2 ± 1.41 µM. The Kd (wildtype ecDHFR [7]; KD^NADPH, 5 μM ecDHFR, ΔF340nm analysis, fitted up to 100 μM NADPH) was 1.23 ± 0.06 µM, the “KD^NADPH weaker than previous reports” value (wildtype ecDHFR [7]; versus 0.34 and […]) was 3∼4 fold and the Kd (T113V-ecDHFR) was 13.7 ± 1.82 µM. For the same compound, the NADPH binding weakened (G121V-ecDHFR [8]) was 40 fold, the ΔG1 (T113V/G121S-ecDHFR [9]) was 5.98 kcal/mol and the ΔG2 (T113V/G121S-ecDHFR [9]) was 5.12 kcal/mol. For the same compound, the “ΔG′1” value (T113V/G121S-ecDHFR [9]) was 5.19 kcal/mol, the “ΔG′2” value (T113V/G121S-ecDHFR [9]) was 4.33 kcal/mol and the ΔΔG (T113V/G121S-ecDHFR [9]) was “–0.79 kcal/mole”. The Kd (T113V/G121S-ecDHFR [10]) was 77.5 ± 19.2 µM, the Kd (M42F/G121S-ecDHFR [11]) was 116 ± 20.1 µM and the ΔG1 (T113V/G121V-ecDHFR [12]) was 5.98 kcal/mol. For the same compound, the ΔG2 (T113V/G121V-ecDHFR [12]) was 5.69 kcal/mol, the “ΔG′1” value (T113V/G121V-ecDHFR [12]) was 5.99 kcal/mol and the “ΔG′2” value (T113V/G121V-ecDHFR [12]) was 5.71 kcal/mol. The ΔΔG (T113V/G121V-ecDHFR [12]) was 0.02 kcal/mol, the NADPH binding weakened (G121S-ecDHFR [13]) was 10 fold and the Kd (M42F/G121V-ecDHFR [14]) was 74 ± 9.09 µM.
For Nc1nc(=O)c2c([nH]1)NCC(CNc1ccc(C(=O)N[C@@H](CCC(=O)O)C(=O)O)cc1)=N2 [H2F, 7,8-dihydrofolate], the “decrease in H2F-binding affinity” value (T113V mutants of ecDHFR) is given as 20–30 fold.
